Results reported in patent publication US20240391904A1, “DIHYDROPYRIMIDINE BASED COMPOUND, PREPARATION METHOD THEREFOR AND USE OF THEREOF” (CHENGDU SHIBEIKANG BIOMEDICAL TECHNOLOGY CO., LTD., priority 2021, published 2024).
Marks after values point to notes of the source that are not given here.

Legend:
human P2X3 receptor = biological target: T1, human P2X3 receptor (Homo sapiens, UniProt P56373); experiment: In vitro bioactivity evaluation: FLIPR antagonist mode, HEK 293 cells stably transfected with human P2X3 receptor, BZATP agonist
T1 sequence (P56373 1-397): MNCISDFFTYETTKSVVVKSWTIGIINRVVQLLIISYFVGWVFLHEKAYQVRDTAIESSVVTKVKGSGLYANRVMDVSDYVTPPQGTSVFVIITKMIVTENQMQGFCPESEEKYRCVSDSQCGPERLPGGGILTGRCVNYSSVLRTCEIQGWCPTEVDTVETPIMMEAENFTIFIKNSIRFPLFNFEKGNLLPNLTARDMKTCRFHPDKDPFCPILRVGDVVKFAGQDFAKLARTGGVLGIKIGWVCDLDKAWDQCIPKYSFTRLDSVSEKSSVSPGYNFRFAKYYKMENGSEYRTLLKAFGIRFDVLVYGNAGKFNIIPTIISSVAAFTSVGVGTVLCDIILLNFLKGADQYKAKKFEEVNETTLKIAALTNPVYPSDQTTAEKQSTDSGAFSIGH
Experimental: Cell culture medium: DMEM high glucose; 10% FBS; 1% PenStrep.
The Petri dish was placed in an incubator for 1-3 minutes or until the cells were digested, 3 mL of a complete medium was then added to terminate the digestion, and the cell density was determined by a cell counter. • 2) After centrifugation at 1000 rpm/min for 5 min, the cells were resuspended in a growth medium and the volume of the suspension was adjusted to reach a cell density of 4×10^5 cells/mL (1×10^4 cells/25 μL). • 3) 10 μL of 5× Matrigel was added into a black microplate, and the microplate was placed in an incubator for 15 min. The microplate was removed and invertedly centrifuged at 300 g/min for 30 s to remove the 5× Matrigel.

KM mice = experiment: Mouse cough test (ammonia-induced coughing); assay type: in vivo; settings: for Number of Coughs (time): mice; for reduction in the number of coughs at 3 mg/kg: compared with model group; for duration of the cough suppression action: 30 to 120 min after administration
Text: Compounds of Example 1-24 (synthesized in the inventor's laboratory), positive control drug (gefapixant, batch No: 01030-210326-2-1, purchased from Holder Pharmaceuticals), the compound of Comparative Example 1 (synthesized in the inventor's laboratory).
Healthy adult KM mice, half of them are male and half of them are female, 6 per group, weighing about 28-30 g.
Most of the animal coughing models currently reported in the literatures use mechanical, chemical and electrical stimulations to stimulate the nerves and receptors of the animals to trigger coughing. According to the characteristics of the candidate compounds and the existing similar target compounds for reference, the method of concentrated ammonia induction was initially chosen to establish the cough modeling test in mice.
Preparation of 50% ammonia solution: 2.5 ml of ammonia was dissolved in […] of a 0.9% sodium chloride solution for injection and mixed evenly.
Preparation of a solution of the compound of Comparative Example 1: 9 mg of the compound of Comparative Example 1 was weighed and dissolved in 3 ml of a 0.5% CMC-Na solution, and mixed evenly to prepare a 3 mg/ml solution.
Preparation of a solution of the example compounds: 9 mg of the example compound was weighed and dissolved in 3 ml of a 0.5% CMC-Na solution, and mixed evenly to prepare a 3 mg/ml solution.
Grouping: a positive control group, a Comparative Example 1 group, Example 1 group-Example 24 group, and a model group were set up. Six KM mice were taken from each group and administered by gavage; here, the Comparative Example 1 group was given the compound of Comparative Example 1, the positive control group was given the positive control drug (gefapixant, commercially purchased), the Example groups were given the compounds prepared in the corresponding Examples, with each group given one of three dosages: 30 mg/kg, […], and 3 mg/kg; and the model group was given the same volume of 0.5% CMC-Na solution.
30 min, 60 min or 120 min after administration, the mice were placed in a 500 ml beaker with a cotton ball (weight 100±5 mg) containing 0.3 ml of 50% ammonia.
(1) Judgment criteria of coughing: coughing was manifest in contraction of abdominal muscles or chest contraction, with mouth wide opening and a coughing sound.
(2) The number of coughs (times) within 3 min was recorded with a stopwatch, and the data were statistically analyzed by software, with the data in each group shown in mean±standard deviation. A one-way analysis of variance among the groups was conducted, and P<0.05 was considered a difference having a statistical significance.

[1] = 30 mg/kg by gavage, 30 min after administration, coughs within 3 min, ammonia-induced
[2] = 30 mg/kg by gavage, 60 min after administration, coughs within 3 min (Table 6)
[3] = 30 mg/kg by gavage, 120 min after administration, coughs within 3 min
[4] = 30 mg/kg, 30 min after administration
[5] = 3 mg/kg by gavage, 60 min after administration, coughs within 3 min
[6] = 10 mg/kg by gavage, 60 min after administration, coughs within 3 min
[7] = 30 mg/kg by gavage, 60 min after administration, coughs within 3 min (Table 5)

| SMILES | IC50 (human P2X3 receptor) | Number of Coughs (time) (KM mice; [1]) | cough suppressing effect compared with the positive compound (KM mice; [4]) | further results |
| --- | --- | --- | --- | --- |
| C[C@@H](Cn1c(=O)cc(Nc2ccc(Oc3ncccc3F)cc2)n(Cc2ccc(Cl)cc2)c1=O)C(=O)O [Comparative Example 1, reference compound] | 10.1 to 50 nM | 25.61* time |  | cough suppressing effect at 120 min (KM mice; 30 mg/kg, 120 min after administration): did not have a significant cough suppressing effect at 120 min; Number of Coughs (time) (KM mice; [2]): 24.12** time; Number of Coughs (time) (KM mice; [3]): 44.17 time |
| C[C@@H](Cn1c(=O)cc(Nc2ccc(Oc3cnccn3)cc2)n(Cc2ccc(Cl)cc2)c1=O)C(=O)O [Compound 2] |  | 27.67* time |  |  |
| C[C@@H](Cn1c(=O)cc(Nc2ccc(Oc3cnccn3)cc2)n(Cc2ccc(Cl)cc2)c1=O)C(=O)NS(C)(=O)=O [Compound 3] | 10.1 to 50 nM | 16.21** time | stronger than that of the positive compound | reduction in the number of coughs at 3 mg/kg (KM mice; 60 min after administration): statistically significant (P<0.01) reduction in the number of coughs; cough suppressing efficacy at 10 mg/kg (KM mice; 60 min after administration): improved cough suppressing efficacy than the positive control drug; duration of the cough suppression action (KM mice; 30 mg/kg): significantly prolonged compared with that of the compound of Comparative Example 1; Number of Coughs (time) (KM mice; [5]): 21.14** time; Number of Coughs (time) (KM mice; [6]): 19.83**^Δ time; Number of Coughs (time) (KM mice; [7]): 16.02** time; Number of Coughs (time) (KM mice; [2]): 16.02** time; Number of Coughs (time) (KM mice; [3]): 15.13**^Δ time |
| COC(=O)C(C)(C)Cn1c(=O)cc(Nc2ccc(Oc3cnccn3)cc2)n(Cc2ccc(Cl)cc2)c1=O [Compound 4] | < 10 nM | 15.61** time | stronger than that of the positive compound |  |
| CC(C)(Cn1c(=O)cc(Nc2ccc(Oc3cnccn3)cc2)n(Cc2ccc(Cl)cc2)c1=O)C(=O)O [Compound 5] |  | 33.67 time |  |  |
| CC(C)(Cn1c(=O)cc(Nc2ccc(Oc3cnccn3)cc2)n(Cc2ccc(Cl)cc2)c1=O)C(=O)NS(C)(=O)=O [Compound 6] | 10.1 to 50 nM | 17.81** time | stronger than that of the positive compound |  |
| C[C@@H](Cn1c(=O)cc(Nc2ccc(Oc3ccccn3)cc2)n(Cc2ccc(Cl)cc2)c1=O)C(=O)O [Compound 7] | < 10 nM | 15.20** time | stronger than that of the positive compound | reduction in the number of coughs at 3 mg/kg (KM mice; 60 min after administration): statistically significant (P<0.01) reduction in the number of coughs; cough suppressing efficacy at 10 mg/kg (KM mice; 60 min after administration): improved cough suppressing efficacy than the positive control drug; Number of Coughs (time) (KM mice; [5]): 23.34** time; Number of Coughs (time) (KM mice; [6]): 20.83**^Δ time; Number of Coughs (time) (KM mice; [7]): 15.00** time; Number of Coughs (time) (KM mice; [2]): 15.00** time; Number of Coughs (time) (KM mice; [3]): 38.13 time |
| COC(=O)[C@@H](C)Cn1c(=O)cc(Nc2ccc(Oc3ccccn3)cc2)n(Cc2ccc(Cl)cc2)c1=O [Compound 8] | 10.1 to 50 nM | 25.00* time |  | Number of Coughs (time) (KM mice; [7]): 27.33* time |
| CC(C)(Cn1c(=O)cc(Nc2ccc(Oc3ccccn3)cc2)n(Cc2ccc(Cl)cc2)c1=O)C(=O)O [Compound 10] | < 10 nM | 17.20** time | stronger than that of the positive compound | duration of the cough suppression action (KM mice; 30 mg/kg): short duration of action; cough suppressing effect at 60 min (KM mice; 30 mg/kg, 60 min after administration): no cough suppressing effect at 60 min; Number of Coughs (time) (KM mice; [7]): 40.17 time |
| COC(=O)C(C)(C)Cn1c(=O)cc(Nc2ccc(Oc3ccccn3)cc2)n(Cc2ccc(Cl)cc2)c1=O [Compound 11] | 10.1 to 50 nM | 31.00 time |  |  |
| O=C(O)C1(Cn2c(=O)cc(Nc3ccc(Oc4ccccn4)cc3)n(Cc3ccc(Cl)cc3)c2=O)CC1 [Compound 13] | 10.1 to 50 nM | 25.60 time |  |  |
| COC(=O)C1(Cn2c(=O)cc(Nc3ccc(Oc4ccccn4)cc3)n(Cc3ccc(Cl)cc3)c2=O)CC1 [Compound 14] | 10.1 to 50 nM | 32.17 time |  |  |
| C[C@@H](Cn1c(=O)cc(Nc2ccc(Oc3ccccn3)cc2)n(Cc2ccc(C(F)(F)F)cc2)c1=O)C(=O)NS(C)(=O)=O [Compound 18] |  | 20.57** time |  |  |
| C[C@@H](Cn1c(=O)cc(Nc2ccc(Oc3ccc(OC(F)(F)F)cn3)cc2)n(Cc2ccc(Cl)cc2)c1=O)C(=O)NS(C)(=O)=O [Compound 19, (S)-3-(3-(4-chlorobenzyl)-2,6-dioxo-4-(4-(5-((5-trifluoromethoxy)pyridin-2-yl)oxyphenyl)amino)-3,6-dihydropyrimidin-1(2H)-yl)-2-methyl-N-(sulfonyl)propionamide group] |  | 17.62** time | stronger than that of the positive compound |  |
| C[C@@H](Cn1c(=O)cc(Nc2ccc(Oc3ccc(OC(F)F)cn3)cc2)n(Cc2ccc(Cl)cc2)c1=O)C(=O)NS(C)(=O)=O [Compound 20, (S)-3-(3-(4-chlorobenzyl)-2,6-dioxo-4-(4-(5-((5-difluoromethoxy)pyridin-2-yl)oxyphenyl)amino)-3,6-dihydropyrimidin-1(2H)-yl)-2-methyl-N-(sulfonyl)propionamide group] | 10.1 to 50 nM | 15.17** time | stronger than that of the positive compound |  |
| C[C@@H](Cn1c(=O)cc(Nc2ccc(Oc3ccc(Cl)cn3)cc2)n(Cc2ccc(Cl)cc2)c1=O)C(=O)NS(C)(=O)=O [Compound 21] |  | 18.83** time |  |  |
| C[C@@H](Cn1c(=O)cc(Nc2ccc(Oc3ncccn3)cc2)n(Cc2ccc(Cl)cc2)c1=O)C(=O)NS(C)(=O)=O [Compound 22] | 50.1 to 100 nM | 35.61 time |  |  |
| C[C@@H](Cn1c(=O)cc(Nc2ccc(Oc3ccccc3)cc2)n(Cc2ccc(Cl)cc2)c1=O)C(=O)NS(C)(=O)=O [Compound 23] | 50.1 to 100 nM | 34.67 time |  |  |
